Laboratory results published in the supplement of paper PMC10307832.

Key:
Assay in all cases: relative viability (nuclei count vs DMSO), 5 days (fraction); higher = more cells survive
[1] = compound: COc1cc(Nc2c(C#N)cnc3cc(OCCCN4CCN(C)CC4)c(OC)cc23)c(Cl)cc1Cl [Bosutinib] + Nc1nc2[nH]cc(CCc3ccc(C(=O)N[C@@H](CCC(=O)O)C(=O)O)cc3)c2c(=O)[nH]1 [Pemetrexed] (partner 0.2 µM)
Outline: (§1)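 Medians of duplicate plates are given as relative viability. That measure is the nuclei count in treated wells divided by the count in vehicle wells. Counts were taken on 4× images of lung cancer cell lines in 1536-well plates, 5 days after pin-tool dosing the day after seeding with one drug alone or a fixed anchor-drug dose plus five library-drug doses (not always all listed) in √10 steps.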

[2] = compound: COc1cc(Nc2c(C#N)cnc3cc(OCCCN4CCN(C)CC4)c(OC)cc23)c(Cl)cc1Cl [Bosutinib] + COc1cccc2cc(-c3nc([C@H]4CC[C@H](C(=O)O)CC4)n4ncnc(N)c34)[nH]c12 [OSI-027] (partner 0.5 µM)
Outline: as §1

[3] = compound: COc1cc(Nc2c(C#N)cnc3cc(OCCCN4CCN(C)CC4)c(OC)cc23)c(Cl)cc1Cl [Bosutinib] + CC(C)C[C@H](NC(=O)[C@H](Cc1ccccc1)NC(=O)c1cnccn1)B(O)O [Bortezomib] (partner 0.002 µM)
Outline: as §1

[4] = compound: COc1cc(Nc2c(C#N)cnc3cc(OCCCN4CCN(C)CC4)c(OC)cc23)c(Cl)cc1Cl [Bosutinib] + Nc1ncn([C@H]2C[C@H](O)[C@@H](CO)O2)c(=O)n1 [Decitabine] (partner 2 µM)
Outline: as §1

[5] = compound: COc1cc(Nc2c(C#N)cnc3cc(OCCCN4CCN(C)CC4)c(OC)cc23)c(Cl)cc1Cl [Bosutinib] + C[C@@H](Oc1cc(-c2cnn(C3CCNCC3)c2)cnc1N)c1c(Cl)ccc(F)c1Cl [Crizotinib] (partner 1 µM)
Outline: as §1

Row | Cell Line | relative viability ([1]; first compound 0.01 µM) | relative viability ([1]; first compound 0.03162 µM) | relative viability ([1]; first compound 0.1 µM) | relative viability ([1]; first compound 1 µM) | relative viability ([2]; first compound 0.01 µM) | relative viability ([2]; first compound 0.03162 µM) | relative viability ([2]; first compound 0.1 µM) | relative viability ([2]; first compound 1 µM) | relative viability ([3]; first compound 0.01 µM) | relative viability ([3]; first compound 0.03162 µM) | relative viability ([3]; first compound 0.1 µM) | relative viability ([3]; first compound 1 µM) | relative viability ([4]; first compound 0.01 µM) | relative viability ([4]; first compound 0.03162 µM) | relative viability ([4]; first compound 0.1 µM) | relative viability ([4]; first compound 1 µM) | relative viability ([5]; first compound 0.01 µM) | relative viability ([5]; first compound 0.03162 µM) | relative viability ([5]; first compound 0.1 µM) | relative viability ([5]; first compound 1 µM)
1 | NCI-H1651 | 0.529 | 0.678 | 0.643 | 0.569 | 0.678 | 0.793 | 0.709 | 0.657 | 0.914 | 0.942 | 0.994 | 0.978 | 0.511 | 0.711 | 0.688 | 0.625 | 0.783 | 0.89 | 0.888 | 0.773
2 | NCI-H1666 | 0.827 | 0.888 | 0.833 | 0.912 | 0.773 | 0.811 | 0.821 | 1.03 | 0.794 | 0.74 | 0.977 | 0.746 | 0.63 | 0.868 | 0.72 | 0.802 | 1.2 | 0.987 | 0.916 | 0.912
3 | NCI-H1734 | 0.401 | 0.392 | 0.445 | 0.377 | 0.584 | 0.609 | 0.684 | 0.538 | 0.948 | 0.951 | 0.827 | 0.879 | 0.511 | 0.55 | 0.483 | 0.458 | 0.737 | 0.656 | 0.658 | 0.537
4 | NCI-H1755 | 0.405 | 0.488 | 0.468 | 0.45 | 0.786 | 0.853 | 0.803 | 0.663 | 0.941 | 1.07 | 1.03 | 0.894 | 0.639 | 0.678 | 0.713 | 0.804 | 0.804 | 0.953 | 0.903 | 0.688
5 | NCI-H1792 | 0.902 | 0.792 | 0.891 | 0.764 | 0.692 | 0.706 | 0.751 | 0.688 | 0.991 | 0.95 | 0.974 | 0.884 | 0.611 | 0.561 | 0.623 | 0.417 | 0.984 | 0.978 | 0.981 | 1
6 | NCI-H1915 | 0.461 | 0.504 | 0.533 | 0.46 | 0.646 | 0.671 | 0.71 | 0.669 | 0.942 | 0.932 | 1.02 | 1.01 | 0.265 | 0.261 | 0.242 | 0.267 | 0.932 | 0.89 | 0.98 | 0.956
7 | NCI-H1975 | 0.287 | 0.289 | 0.292 | 0.281 | 0.735 | 0.761 | 0.697 | 0.534 | 0.432 | 0.399 | 0.424 | 0.388 | 0.45 | 0.369 | 0.398 | 0.371 | 0.926 | 0.965 | 1.01 | 0.849
8 | NCI-H1993 | 0.506 | 0.663 | 0.611 | 0.686 | 0.54 | 0.541 | 0.539 | 0.469 | 1.11 | 1.26 | 1.08 | 0.949 | 0.599 | 0.655 | 0.655 | 0.568 | 0.816 | 0.875 | 0.686 | 0.602
9 | NCI-H2009 | 0.944 | 1.06 | 1.17 | 0.946 | 0.681 | 0.799 | 0.746 | 0.522 | 1.17 | 1.08 | 1.1 | 0.795 | 0.365 | 0.468 | 0.345 | 0.36 | 1.05 | 1.07 | 1.03 | 0.66
10 | NCI-H2023 | 0.218 | 0.263 | 0.23 | 0.223 | 0.477 | 0.429 | 0.377 | 0.362 | 0.945 | 1.01 | 1.06 | 0.813 | 0.233 | 0.248 | 0.216 | 0.25 | 0.538 | 0.613 | 0.511 | 0.366
11 | NCI-H2085 | 0.869 | 0.863 | 0.87 | 0.736 | 0.741 | 0.781 | 0.726 | 0.462 | 0.982 | 0.969 | 1.02 | 1.04 | 0.553 | 0.564 | 0.543 | 0.606 | 0.799 | 0.685 | 0.826 | 0.874
12 | NCI-H2087 | 0.705 | 0.626 | 0.741 | 0.631 | 0.685 | 0.701 | 0.727 | 0.727 | 0.809 | 1.02 | 0.876 | 1.03 | 0.289 | 0.311 | 0.294 | 0.271 | 0.905 | 0.991 | 0.817 | 0.908
13 | NCI-H2126 | 0.659 | 0.645 | 0.694 | 0.658 | 0.678 | 0.784 | 0.753 | 0.688 | 1.06 | 1.1 | 1.07 | 1.11 | 0.548 | 0.537 | 0.609 | 0.588 | 0.934 | 1.02 | 0.987 | 0.957
14 | NCI-H2347 | 0.434 | 0.469 | 0.462 | 0.421 | 0.347 | 0.436 | 0.436 | 0.385 | 1.12 | 1.3 | 1.09 | 0.923 | 0.631 | 0.623 | 0.64 | 0.529 | 0.835 | 0.877 | 0.914 | 0.648
15 | NCI-H2405 | 1.14 | 1.08 | 1.06 | 0.824 | 0.634 | 0.619 | 0.615 | 0.629 | 0.764 | 1.04 | 1.01 | 0.941 | 0.749 | 0.775 | 0.757 | 0.57 | 0.945 | 0.855 | 0.891 | 0.576
